Test results taken from the METLIN SMRT retention time set (Domingo-Almenara et al. 2019).

Assay: gradient 5% acetonitrile 3 min, to 50% in 2 min, to 85% in 15 min, held 3 min, 100 µL/min
Conditions: column: Zorbax Extend-C18 2.1 x 50 mm; eluents: water / acetonitrile, 0.1% formic acid
In short: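 Over 3 months, pure standards in mixtures of ~100 molecules were run by HPLC coupled to a quadrupole time-of-flight mass spectrometer in positive and negative ionization mode. The column was a Zorbax Extend-C18 (2.1 × 50 mm, 1.8 μm) at 100 μL/min, eluted with water and acetonitrile each holding 0.1% formic acid, with 40 μL dead and 900 μL dwell volumes. Retention time was determined from adduct peaks chosen by software and checked manually.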

| RP-LC retention time [s] | Compound |
| --- | --- |
| 866 | C[C@H]1CN(C(=O)Nc2ccc3c(c2)CCC3)C[C@@H]1c1nc(-c2cccnc2)no1 |
| 748 | COCCCNC(=O)C1CCN(C2=NS(=O)(=O)C(c3ccc(Cl)cc3)=C2C)CC1 |
| 785 | CCC(C)C(=O)NC1CCN(C2=NS(=O)(=O)C(c3ccc(F)cc3)=C2C)CC1 (stereo not given) |
| 583 | O=C(CNC(=O)c1ccc(=O)[nH]c1)NCCOc1ccc(F)cc1 |
| 823 | Cc1ccc(N2CCN(C(=O)c3cn4nc(Cl)ccc4n3)CC2)cc1 |
| 729 | COc1ccccc1OCc1nc(-c2ccc3ncn(C(C)C)c3c2)no1 |
| 601 | CC(C)CNC(=O)Cn1c(C(C)C)nc2ccccc21 |
| 603 | CC1CCCCC12NCCN=C2NCc1ccc(F)cc1 (stereo not given) |
| 843 | CC(=O)NNC(=O)N1Cc2ccccc2Oc2ccc(Cl)cc21 |
| 604 | CN(C)c1nccnc1OC1CCN(C(=O)c2ccn[nH]2)C1 (stereo not given) |
| 637 | Cc1cc(C)cc(N2CCC(NC(=O)Cc3ccsc3)C2=O)c1 (stereo not given) |
| 1110 | CCN1C(=O)COc2ccc(-c3nc(NC(=O)c4cccc(Cl)c4)sc3C)cc21 |
| 781 | COC(=O)c1[nH]c2c(c1C)C(=O)CC(c1cc(OC)c(OC)c(OC)c1)C2 (stereo not given) |
| 817 | Cc1ccc(NC(=O)C2CCN(S(=O)(=O)c3ccc4c(c3)NC(=O)C(C)O4)CC2)cc1 (stereo not given) |
| 715 | COc1cccc(NC(=O)N2CCC(n3c(-c4ccoc4)nc4cccnc43)C2)c1 (stereo not given) |
| 738 | CC1(C)CC(=O)c2c(O)cc(OCC(=O)O)cc2O1 |
| 643 | Cc1noc(C)c1S(=O)(=O)NCCOc1cc(N2CCOCC2)ncn1 |
| 764 | CC1=C(c2ccc(C)c(C)c2)S(=O)(=O)N=C1N1CCCN(C(=O)c2ccoc2)CC1 |
| 1030 | CCn1cc(-c2nc(C)c(C(=O)N3CCc4ccccc43)s2)c2cccnc21 |
| 732 | Cc1ncsc1CN1CCC(Oc2ccccc2-c2nc(-c3ccccc3)no2)C1 (stereo not given) |
| 1050 | CCCCOc1ccc(-c2cc3c4nn(CC(=O)NC5CCCC5)c(=O)n4ccn3n2)cc1 |
| 744 | Cc1cc(C)cc(C(=O)NCCc2nc3cccnc3n2C(C)C)c1 |
| 1030 | COc1ccc(N2CC(c3nc(-c4ccc(N(C)C)cc4)no3)CC2=O)cc1Cl (stereo not given) |

| RP-LC retention time [s] | Compound |
| --- | --- |
| 1290 | COc1ccc(-c2csc(Cc3nc(-c4ccc(Cl)cc4)no3)n2)cc1 |
| 641 | CCCN1CCN(CCNC(=O)C2CCCN(c3ncc(-c4ccc(F)cc4)cn3)C2)CC1 (stereo not given) |
| 647 | O=C(CSc1nnc(CNC(=O)c2ccc(F)cc2)o1)NCc1ccco1 |
| 749 | Cc1ccc(CNC(=O)CCc2nnc3c4cc(-c5ccccc5)nn4ccn23)o1 |
| 603 | Cc1cc(=O)n(CC(=O)Nc2cccc(F)c2)c(N)n1 |
| 745 | Cc1ccc(C)c(NC(=O)N2CCCN(c3ccc(=O)n(-c4ccccc4)n3)CC2)c1 |
| 618 | O=C(Cn1cnc2c(nc3n2CCCCC3)c1=O)NCc1ccco1 |
| 743 | O=c1n(Cc2cc(F)cc(F)c2)nc2c(S(=O)(=O)N3CCOCC3)cccn12 |
| 779 | CCOC(=O)c1c(C)[nH]c(C(=O)N2CCC(CC(=O)NCc3cccc(F)c3)CC2)c1C |
| 833 | O=[N+]([O-])c1ccc(-c2nc(N3CCOCC3)c3ccccc3n2)cc1 |
| 847 | O=C(NC(c1ccccc1)c1nnc(N2CCCCC2)o1)c1ccc2c(c1)OCO2 (stereo not given) |
| 622 | Cc1cc(N2CCCC2)n2nc(CN3CCN(c4ccccc4F)CC3)nc2n1 |
| 1200 | CC(C)C(=O)Nc1ccc(-c2nc(-c3ccc(Cl)cc3)no2)cc1 |
| 1030 | COc1ccc(-c2noc(CC3CCN(C(=O)C4(c5ccc(OC)cc5)CC4)CC3)n2)cc1 |
| 947 | COc1cccc(Cn2cnc3c(-c4ccc(OC)c(OC)c4)csc3c2=O)c1 |
| 778 | O=C(NCc1csc(-c2cccs2)n1)C1CCN(C(=O)Cc2ccc(F)cc2)CC1 |
| 662 | CCn1nc(C)c(CCNC(=O)c2ccc3nc(C(C)C)oc3c2)c1C |
| 716 | CCc1nncn1C1CCN(S(=O)(=O)c2ccc(Cl)c(C)c2)CC1 |
| 695 | Cc1ccc(NC(=O)Nc2cnn(-c3ncncc3N3CCOCC3)c2)cc1Cl |
| 569 | CC(CCNC(=O)C1CCN(Cc2cn(C)c3ccc(Cl)cc23)CC1)N1CCCCCC1 (stereo not given) |
| 790 | O=C(C1CCCCC1)N1CCN(c2ccc(=O)n(-c3ccccc3)n2)CC1 |
| 1040 | O=S(=O)(c1ccccc1)N1CCc2nc(-c3ccc(F)cc3)ncc2C1 |

Further lines, the molecule ahead of its results:

| Compound | RP-LC retention time [s] |
| --- | --- |
| O=C(NCCc1ccccc1)C(=O)NCC(c1ccc2c(c1)OCO2)N1CCOCC1 (stereo not given) | 672 |
| COC(=O)C1=CN(CC(=O)NCc2ccc(OC)cc2)S(=O)(=O)N=C1C | 1110 |
| COc1ccc(S(=O)(=O)Nc2cccc(-c3cn4cccc(C)c4n3)c2)cc1OC | 634 |
| O=S(=O)(c1cc(-c2nnc(C3CC3)o2)co1)N1CCOCC1 | 730 |
| CCNC(=O)C1CCCN(C(=O)Nc2ccc(NC(=O)Nc3ccc(F)cc3)cc2)C1 (stereo not given) | 691 |
| CCN1C(=O)COc2ccc(-c3csc(NC(=O)c4cccc(C)c4)n3)cc21 | 1050 |
| CCOc1ccc(S(=O)(=O)N2CCCC(C(=O)Nc3cc(C)ccc3OC)C2)cc1 (stereo not given) | 1090 |
| CCN(Cc1cnn(CC)c1)C(=O)C1CN(C(=O)c2ccccc2)CC12CCCCC2 (stereo not given) | 812 |
| CCc1nn2c(CNS(=O)(=O)c3ccccc3Cl)c(-c3ccccc3)nc2s1 | 1000 |
| O=C(Cn1nc(N2CCSCC2)c2ccccc2c1=O)Nc1cccc(Br)c1 | 1030 |
| O=C(CCCn1nc(-c2cccs2)ccc1=O)Nc1cccc2nsnc12 | 728 |
| CCN(C(=O)c1cccc(F)c1)c1nc(-c2ccccc2)cs1 | 1230 |
| COc1ccc(-c2csc(C)n2)cc1S(=O)(=O)N1CCN(c2cccc(Cl)c2)CC1 | 1170 |
| O=c1cc(-c2ccccc2)oc2c(O)c(O)ccc12 | 720 |
| CCCN(C)c1nccnc1OC1CCN(C(=O)CC)C1 (stereo not given) | 694 |
| COc1ccccc1NC(=O)Cn1nc2c(Oc3ccccc3Cl)nccn2c1=O | 908 |
| COc1ccc(OC)c(NC(=O)N2CCC(n3c(C(F)(F)F)nc4cccnc43)CC2)c1 | 895 |
| Cc1ccc(NC(=O)Cn2nc3nc(N4CCSCC4)ccn3c2=O)cc1C | 754 |
| CNC(=O)c1cncc(OC(C)C)c1 | 610 |
| O=C(O)c1cccc(Nc2c(-c3ccc(Cl)cc3)nc3cnccn23)c1 | 757 |
| Cc1ccc(-c2noc(C3CC(=O)N(c4ccc5c(c4)OCCO5)C3)n2)cc1 (stereo not given) | 943 |
| Cc1cc(F)ccc1S(=O)(=O)NCC(c1ccsc1)N1CCOCC1 (stereo not given) | 572 |
| CCOc1cccc(-c2noc(Cn3ccn(-c4ccccc4)c(=O)c3=O)n2)c1 | 858 |

| Compound | RP-LC retention time [s] |
| --- | --- |
| c1ccc(-c2noc(-c3ccc(N4CCN(c5ccccn5)CC4)nc3)n2)cc1 | 768 |
| COC(=O)c1ccc2c(=O)n(-c3cccc(C)c3)c(N3CCSC3)nc2c1 | 1130 |
| COc1ccccc1CCC(=O)N1CCC[C@@H]1C(=O)NCCc1csc(-c2ccccc2)n1 | 891 |
| CCOc1ccccc1-c1nc(-c2cn(-c3ccc(F)cc3)nn2)no1 | 1090 |
| O=C(NCCCN1CCOCC1)C1CCCN(c2cnc3nccnc3c2)C1 (stereo not given) | 565 |
| CC(C)Oc1ccc(-c2noc(Cn3c(=O)n(CCc4ccccc4)c(=O)c4sccc43)n2)cc1 | 1230 |
| O=C1CCC(NC(=O)c2ccccc2)C(=O)N1 (stereo not given) | 650 |
| CCOc1ncccc1CNC(=O)c1ccc2nc[nH]c2c1 | 569 |
| O=C(O)c1cc(Nc2ccc(F)cc2)c2cccc(Cl)c2n1 | 624 |
| CCCCOc1ccc(-c2cc3c(N4CCN(CC)CC4)nccn3n2)cc1 | 775 |
| COc1ccc(NS(=O)(=O)c2c(C)sc(C)c2-c2cc(C(F)(F)F)on2)cc1OC | 1020 |
| O=C1CCN(S(=O)(=O)c2ccccc2)CCCN(S(=O)(=O)c2cccc(F)c2)CCN1 | 795 |
| CCC(=O)N(C1CCOCC1)C1CCN(S(=O)(=O)c2ccccc2F)CC1 | 797 |
| O=C(C1CCN(c2cnc(N3CCSCC3)nc2)CC1)N1CCC2(CC1)OCCO2 | 692 |
| Cc1noc(C)c1S(=O)(=O)NCC1CCN(C(=O)Nc2ccc(F)cc2)CC1 | 742 |
| CC(C)c1ccc(-n2ccnc(NC(=O)Nc3ccc(F)cc3)c2=O)cc1 | 1100 |
| CCc1noc(C2CCCCN2Cc2nc(-c3cccnc3)no2)n1 (stereo not given) | 821 |
| COCC(C)(O)CNC(=O)c1ccc2nsnc2c1 (stereo not given) | 606 |
| COc1ccc(-c2ccnn2-c2ccc(SCc3ccc(C)cc3)nn2)cc1 | 1420 |
| O=C(NC1CC1)c1ccc(-n2cccc2)nc1 | 728 |
| CCOCC(=O)Nc1c(C)nc2ccc(Cl)cn2c1=O | 583 |
| CCOC(=O)C1=C(CN2CCN(c3ccccn3)CC2)NC(=O)NC1c1cccs1 (stereo not given) | 919 |
